{
  "source": "paper PMC10411625",
  "about": "“Rationally designed stapled peptides allosterically inhibit PTBP1–RNA-binding” (Chemical Science, 2023)",
  "assay": "Helicity by circular dichroism spectroscopy",
  "format": "physicochemical",
  "conditions": "50 µM peptide, 20 mM sodium phosphate pH 8.0, 10 mM NaF, 20 °C, triplicates, JASCO multivariate secondary structure analysis",
  "from_the_text": "For the initial design we used the i, i + 4 strategy where two (S)-pentenyl alanines (S5) were introduced in positions with three other amino acids in between. We picked three different amino acid pairs to replace with the S5 amino acids based on their orientation as observed in the NMR structures (P-2, P-3 and P-4, Fig. 2B and C).[25] To prevent the staple from disturbing the interaction between the ligand and the protein we chose positions facing away from the binding site forming the pairs Ala145/Ala149, Gln148/Gln152, and Ala149/Ala153. The three peptides were synthesized on Rink amide resin and the linear peptides were treated with a Grubbs catalyst to connect the S5 residues. To avoid a mixture of E/Z-diastereomers we reduced the alkene in the linker of the staple using a solution phase hydrogenation protocol.[43] The linear equivalent P-1 was synthesized for comparison but had to be extended on the C-terminus with an arginine residue to improve its solubility. The C-terminus is away from the binding surface and this modification was therefore not expected to have an impact on the binding affinity. The peptides were tested in a competitive fluorescence polarization assay using the RRM12 construct and RNA-2 (Fig. 2C and S2 ^†). […] As the staple is expected to stabilize the α-helical conformation we used circular dichroism (CD) spectroscopy to evaluate the helicity of the peptides. […] It is possible that although P-4 was more helical than P-3, the replacement of Gln148 with the hydrophobic linker disturbed the interaction since the side chain amide potentially interacts with the RRM1 surface. […]\nperformed in FP bufferPTBP1. […]\nserially diluted in the same buffer. […]\na final concentration of 10 nM probe. […]\nthe settings mentioned previously.\nFluorescence polarization assay with SRSF1\nFluorescence polarization was\nFluorescence polarization assay with hnRNPA2/B1\nFor the competitive assay 10 nM\nMicroscale thermophoresis […]\nafterwards serially diluted into FP buffer.\nThe data was evaluated at […]\nexperiments were performed in duplicates.\nCircular Dichroism Spectroscopy […]",
  "data": [
    {"smiles": "CC(=O)N[C@@H](CC(N)=O)C(=O)N[C@@H](CCC(N)=O)C(=O)N[C@@]1(C)CCCCCCCC[C@@](C)(C(=O)N[C@@H](C)C(=O)N[C@@H](CC(C)C)C(=O)N[C@@H](CCC(N)=O)C(=O)N[C@@H](C)C(=O)N[C@H](C(=O)N[C@@H](CC(N)=O)C(N)=O)C(C)C)NC(=O)[C@H](CCC(N)=O)NC(=O)[C@H](C)NC(=O)[C@H](CCCNC(=N)N)NC1=O", "note": "[Peptide P-2]", "values": [
      {"measurement": "Helicity by CD spectroscopy", "value": 92.3, "unit": "%"}
    ]}
  ]
}
